# Experimental data reported in patent US7018987B1 (priority 1998, dated 2006).
# Assays:
# [1] = system: P388 lymphocytic leukemia; assay type: cell-based, Murine; conditions: murine P-388 leukemia, 48 hours
# [2] = system: eight bacteria and two fungi tested; assay: Disk susceptibility testing, whole microbe panel; assay type: cell-based; conditions: at 100 μg/disk, eight bacteria and two fungi
# BXPC-3 = assay type: cell-based, Human; conditions: BXPC-3, 48 hours
# FADU = assay type: cell-based, Human; conditions: FADU, 48 hours
# Solubility in water = conditions: mg per 1 ml water at 25° C.
# SK-N-SH = assay type: cell-based, Human; conditions: SK-N-SH, 48 hours
# NCI-H460 = assay type: cell-based, Human; conditions: NCI-H460, 48 hours
# SW1736 = assay type: cell-based, Human; conditions: SW1736, 48 hours
# DU-145 = assay type: cell-based, Human; conditions: DU-145, 48 hours
# SK-Mel-3 = assay type: cell-based, Human; conditions: SK-Mel-3, 48 hours
# Neisseria gonorrhoeae = assay type: cell-based; conditions: Neisseria gonorrhoeae, disk susceptibility
compound,measurement,setting,value
"COc1ccc(/C=C\c2cc(OC)c(OC)c(OC)c2)cc1OP(=O)([O-])[O-].[Mg+2] [Compound 5d, Magnesium combretastatin A-4 3-O-phosphate]",ED50 P-388,[1],0.0018 µg/mL
same,Microbe(s) inhibited,[2],* (At 100 μg/disk no inhibition of the eight bacteria and two fungi tested.)
same,GI50 Pancreas BXPC-3,BXPC-3,0.43 µg/mL
same,GI50 Pharynx FADU,FADU,0.031 µg/mL
same,Solubility,Solubility in water,7 mg/mL
same,GI50 Neuroblast SK-N-SH,SK-N-SH,0.01 µg/mL
same,GI50 Lung-NSC NCI-H460,NCI-H460,0.017 µg/mL
same,GI50 Thyroid SW1736,SW1736,6.8 µg/mL
same,GI50 Prostate DU-145,DU-145,0.01 µg/mL
Adenosine combretastatin A-4 3′-O-phosphate [Compound 5m],ED50 P-388,[1],0.16 µg/mL
same,Microbe(s) inhibited,[2],* (At 100 μg/disk no inhibition of the eight bacteria and two fungi tested.)
same,GI50 Pancreas BXPC-3,BXPC-3,11.6 µg/mL
same,GI50 Pharynx FADU,FADU,0.032 µg/mL
same,GI50 Neuroblast SK-N-SH,SK-N-SH,0.034 µg/mL
same,GI50 Melanoma SK-Mel-3,SK-Mel-3,0.35 µg/mL
same,GI50 Lung-NSC NCI-H460,NCI-H460,0.038 µg/mL
same,GI50 Thyroid SW1736,SW1736,0.092 µg/mL
same,GI50 Prostate DU-145,DU-145,0.036 µg/mL
Calcium combretastatin A-4 3′-O-phosphate [Compound 5a],ED50 P-388,[1],0.0011 µg/mL
same,Microbe(s) inhibited,[2],* (At 100 μg/disk no inhibition of the eight bacteria and two fungi tested.)
same,GI50 Pancreas BXPC-3,BXPC-3,0.22 µg/mL
same,GI50 Pharynx FADU,FADU,0.001 µg/mL
same,GI50 Neuroblast SK-N-SH,SK-N-SH,0.015 µg/mL
same,GI50 Melanoma SK-Mel-3,SK-Mel-3,0.0036 µg/mL
same,GI50 Lung-NSC NCI-H460,NCI-H460,0.001 µg/mL
same,GI50 Thyroid SW1736,SW1736,0.010 µg/mL
same,GI50 Prostate DU-145,DU-145,0.001 µg/mL
Cesium combretastatin A-4 3′-O-phosphate [Compound 5b],ED50 P-388,[1],0.001 µg/mL
same,Microbe(s) inhibited,[2],* (At 100 μg/disk no inhibition of the eight bacteria and two fungi tested.)
same,GI50 Pancreas BXPC-3,BXPC-3,0.31 µg/mL
same,GI50 Pharynx FADU,FADU,0.0023 µg/mL
same,Solubility,Solubility in water,>50 mg/mL
same,GI50 Neuroblast SK-N-SH,SK-N-SH,0.011 µg/mL
same,GI50 Melanoma SK-Mel-3,SK-Mel-3,0.0043 µg/mL
same,GI50 Lung-NSC NCI-H460,NCI-H460,0.0032 µg/mL
same,GI50 Thyroid SW1736,SW1736,8.4 µg/mL
same,GI50 Prostate DU-145,DU-145,0.0028 µg/mL
Cinchonine combretastatin A-4 3-O-phosphate [Compound 5n],ED50 P-388,[1],0.020 µg/mL
same,GI50 Pancreas BXPC-3,BXPC-3,1.6 µg/mL
same,GI50 Pharynx FADU,FADU,0.024 µg/mL
same,Solubility,Solubility in water,4 mg/mL
same,Minimum inhibitory amount per disk,Neisseria gonorrhoeae,25–50 μg/disk
same,GI50 Lung-NSC NCI-H460,NCI-H460,0.037 µg/mL
same,GI50 Thyroid SW1736,SW1736,0.089 µg/mL
same,GI50 Prostate DU-145,DU-145,0.030 µg/mL
Glucosamine combretastatin A-4 3′-O-phosphate [Compound 5o],ED50 P-388,[1],0.0164 µg/mL
same,Microbe(s) inhibited,[2],* (At 100 μg/disk no inhibition of the eight bacteria and two fungi tested.)
same,GI50 Pancreas BXPC-3,BXPC-3,4.5 µg/mL
same,GI50 Pharynx FADU,FADU,0.015 µg/mL
same,Solubility,Solubility in water,15 mg/mL
same,GI50 Neuroblast SK-N-SH,SK-N-SH,0.016 µg/mL
same,GI50 Lung-NSC NCI-H460,NCI-H460,0.034 µg/mL
same,GI50 Thyroid SW1736,SW1736,0.061 µg/mL
same,GI50 Prostate DU-145,DU-145,0.026 µg/mL
Imidazole combretastatin A-4 3-O-phosphate [Compound 5g],ED50 P-388,[1],0.0025 µg/mL
same,Microbe(s) inhibited,[2],* (At 100 μg/disk no inhibition of the eight bacteria and two fungi tested.)
same,GI50 Pancreas BXPC-3,BXPC-3,0.39 µg/mL
same,GI50 Pharynx FADU,FADU,0.01 µg/mL
same,GI50 Neuroblast SK-N-SH,SK-N-SH,0.01 µg/mL
same,GI50 Melanoma SK-Mel-3,SK-Mel-3,0.01 µg/mL
same,GI50 Lung-NSC NCI-H460,NCI-H460,0.004 µg/mL
same,GI50 Thyroid SW1736,SW1736,0.011 µg/mL
same,GI50 Prostate DU-145,DU-145,0.001 µg/mL
Lithium combretastatin A-4 3-O-phosphate [Compound 5c],ED50 P-388,[1],0.0012 µg/mL
same,Microbe(s) inhibited,[2],* (At 100 μg/disk no inhibition of the eight bacteria and two fungi tested.)
same,GI50 Pancreas BXPC-3,BXPC-3,0.31 µg/mL
same,GI50 Pharynx FADU,FADU,0.003 µg/mL
same,GI50 Neuroblast SK-N-SH,SK-N-SH,0.016 µg/mL
same,GI50 Lung-NSC NCI-H460,NCI-H460,0.004 µg/mL
same,GI50 Thyroid SW1736,SW1736,0.030 µg/mL
same,GI50 Prostate DU-145,DU-145,0.0025 µg/mL
Morpholine combretastatin A-4 3′-O-phosphate [Compound 5h],ED50 P-388,[1],0.0023 µg/mL
same,Microbe(s) inhibited,[2],* (At 100 μg/disk no inhibition of the eight bacteria and two fungi tested.)
same,GI50 Pancreas BXPC-3,BXPC-3,0.26 µg/mL
same,GI50 Pharynx FADU,FADU,0.0016 µg/mL
same,GI50 Neuroblast SK-N-SH,SK-N-SH,0.039 µg/mL
same,GI50 Melanoma SK-Mel-3,SK-Mel-3,0.0042 µg/mL
same,GI50 Lung-NSC NCI-H460,NCI-H460,0.003 µg/mL
same,GI50 Thyroid SW1736,SW1736,0.02 µg/mL
same,GI50 Prostate DU-145,DU-145,0.0024 µg/mL
